Measurements reported in patent publication US12239646B2, “Cancer diagnostic and treatment” (DANA-FARBER CANCER INSTITUTE, INC., priority 2017, dated 2025).
“Also recorded” adds a separate entry of the source. Where two headings read alike, the source gives them in different places.

What was measured:
[1] = test system: Fusobacterium-positive colorectal tumors; assay: Recurrence/metastasis of patient colorectal adenocarcinoma tumors by Fusobacterium status and 5-FU treatment; conditions: 91 patient tumors with recurrence data; 43 patients treated with 5-FU or a 5-FU prodrug; p<0.05
Method: FIG. 20 illustrates a comparison between tumors treated with 5-FU or a 5-FU prodrug (right panel) and tumors with no treatment (left panel). A total of 91 patient colorectal adenocarcinoma tumors with recurrence data were analyzed by Fusobacterium culture and bacterial 16s rRNA sequencing.
(§1) A method for determining the threshold to identify inhibitor hits was established and carried out (FIG. 16). […] Validation of inhibitor hits and related compounds was carried out and dose response was determined for 5-FU, carmofur, and tegafur (FIG. 18). Validation of inhibitor hits was also carried out with additional patient CRC isolates of Fusobacterium (FIG. 19). […] Applicants also investigated whether the presence of Fusobacterium in colorectal tumors can explain patient response to 5-FU-based therapies. Data of 91 patient colorectal adenocarcinoma tumors with recurrence were obtained by Fusobacterium culture and bacterial 16s rRNA sequencing analysis.

[2] = during chemotherapy for adenocarcinoma of the small bowel; cited from earlier work
[3] = test system: patient colorectal cancer isolates of Fusobacterium nucleatum and Fusobacterium necrophorum; assay: Validation with additional patient CRC isolates of Fusobacterium; assay type: cell-based; conditions: compared with plasma levels of treated patients (Takimoto et al. 1999)
Method: FIG. 19 depicts validation of with additional patient CRC isolates of Fusobacterium. […] (Takimoto et al., Clinical cancer research: an official journal of the American Association for Cancer Research 5, 1347-1352 (1999)).
as §1

[4] = test system: Fusobacterium nucleatum; assay: Pilot compound screen for inhibition of Fusobacterium growth (BacTiter Glow luminescence); assay type: cell-based; conditions: 32 μM, in duplicate, 48 hours anaerobic; hit cut-off 3 SD from mean of neutral controls
Method: FIG. 16 depicts determining threshold to identify inhibitor hits. Neutral Control=untreated F. nucleatum. Inhibitor Control=F. nucleatum treated with metronidazole. 3 SD from mean of neutral controls=−86% inhibition hit cut-off.
FIG. 17 depicts identifying compounds that inhibit Fusobacterium growth. […] 3 SD from mean of neutral controls=−86% inhibition hit cut-off. 34 inhibitory compounds identified.
A pilot screen containing 1,846 compounds (in duplicate), at [32 μM] was carried out. Approximately 1-2×10^6 Fusobacterium nucleatum cells/ml was seeded and incubated anaerobically for 48 hours. The read out was by the addition of BacTiter Glow and luminescence read out.
as §1

[5] = test system: COCA36F3 F. nucleatum (colorectal cancer isolate); assay: Validation of inhibitor hits, dose response curves; assay type: cell-based, Fusobacterium nucleatum; conditions: 8-point, 2-fold dilutions, range 30-0.23 μM
Method: FIG. 18 depicts validation of inhibitor hits (and related compounds). […] Validation/dose plates: 8-point, 2-fold dilutions, range 30-0.23 μM. Dose Response Curves [0.32-30 μM]: COCA36F3 F. nucleatum (colorectal cancer isolate).
as §1

[6] = test system: ETBF induced murine colonic tumors; conditions: DeStefano Shields et al. 2016; cited from earlier work
[7] = test system: F. nucleatum strains isolated from COCA36 primary tumor and derived xenografts; assay: Antibiotic sensitivity testing (E-test) of clinical F. nucleatum isolates; assay type: cell-based, Fusobacterium nucleatum; conditions: for MIC: Fusobacterium nucleatum
Method: FIG. 14: Antibiotic sensitivity testing (E-test) of clinical F. nucleatum isolates. E-test on F. nucleatum strains isolated from COCA36 primary tumor and derived xenografts. All E-tests were carried out in triplicate on both FAA agar. The antibiotics tested were metronidazole (MZ), cefoxitin (FX) and imipenem (IP). All F. nucleatum strains tested were sensitive to cefoxitin and metronidazole in vitro: test range was 0.016 to 256 ug/ml. […] The F. nucleatum strains tested were resistant/hetero-resistant to imipenem in vitro.
A 1 McFarland solution, in TSB, was prepared from Fusobacterium strains grown for 24-48 hours on FAA under anaerobic conditions. Using a sterile cotton swab, each Fusobacterium strain were inoculated onto antibiotic free blood agar (FAA) and E-test strip (bioMérieux) for Metronidazole (MZ), Clindamycin (CM), Cefoxitin (FX) and Imipenem (IP) were incubated for up to 72 hours and sensitivity checked after 48 hours. Each sensitivity assay was conducted in triplicate. An FAA blood plate inoculated with each Fusobacterium strain, but without the E-test strip, was used as a growth control.

[8] = test system: Fusobacterium species; conditions: cited from earlier work; for general susceptibility of the species: background statement on Fusobacterium
[9] = test system: PDX tumors (COCA36), tumor cell proliferation; assay: In vivo BrdU incorporation assay (IHC) of PDX tumors; design: species or system nude mice (Nu/Nu); conditions: n=6 per arm, three weeks treatment vs vehicle, p=0.0015
Method: Bromodeoxyuridine (BrdUrd) solution (10 mg/mL, 0.2 mL/mouse) was administered via intraperitoneal injection 16 hours after the last dose of metronidazole or vehicle. After 2 additional hours, mice were sacrificed and tumors were fixed in 10% formalin for immunohistochemistry (IHC) analysis. A total of 6 animals per arm, that were treated with metronidazole or the vehicle for three weeks were randomly selected, over two independent trials, for BrdU incorporation analysis. IHC was performed on 4-μm sections of formalin-fixed paraffin-embedded samples. Tissue sections were deparaffinized and rehydrated, and antigen retrieval was performed in 10 mmol/L citrate buffer (pH 6.0) in a 750 W microwave oven at […] for 30 minutes for BrdU staining, BrdU primary antibody (BD Biosciences, #347580) was added at a dilution of 1:100 and incubated for 1 hour at room temperature. Sections were further processed with horseradish peroxidase-conjugated secondary antibody. The reaction was detected by 3,3-diaminobenzidine and hematoxylin staining. Images were obtained with an Olympus CX41 microscope and QCapture software (QImaging).

[10] = test system: Fusobacterium; assay: Fusobacterium-targeted qPCR on PDX tissue after treatment; assay type: in vivo, Fusobacterium species in PDX (COCA36) in Nu/Nu mice; conditions: PDX COCA36, metronidazole vs vehicle; p=0.002
Method: A custom TaqMan primer/probe set was used to amplify Fusobacterium species DNA (Integrated DNA technologies, CA) as previously described (28). The cycle threshold (Ct) values for Fusobacterium species were normalized to the amounts of human genomic DNA in each reaction by using a primer and probe set for the prostaglandin transporter (PGT) reference gene, and the fold difference (2^−ΔCt) in Fusobacterium load in tumor tissue was calculated as described before (8). Each reaction contained 100 ng of genomic DNA and was assayed in triplicate in 20 μL reactions containing 1× final concentration TaqMan Universal Master Mix (Applied Biosystems) and each TaqMan Gene Expression Assay (Applied Biosystems), in a 96-well optical PCR plate. Amplification and detection of DNA was performed with the ABI 7300 Real-Time PCR System (Applied Biosystems) using the following reaction conditions: 10 min at 95° C. and 42 cycles of 15 s at 95° C. and 1 min at 60° C. Cycle thresholding (Ct) was calculated using the automated settings (Applied Biosystems). The primer and probe sequences for each TaqMan Gene Expression Assay were as follows (SEQ ID. 1-6): Fusobacterium species forward primer, 5′-[…]-3′; Fusobacterium species reverse primer, 5′-[…]-3′; Fusobacterium species FAM probe, 5′-[…]-3′. […]

[11] = test system: Fusobacterium-free xenografts derived from HT-29 colon adenocarcinoma cells; assay: In vivo metronidazole trial, Fusobacterium-free HT-29 cell line xenograft; design: species or system nude mice (Nu/Nu); conditions: 100 mg/kg/day oral gavage, approximately 3 weeks, vs vehicle; p>0.05 at all timepoints
Method: For HT-29 cell line xenograft experiments, approximately 1×10^6 HT29 cells were suspended in PBS, mixed 1:1 with Matrigel (BD Biosciences), and injected subcutaneously into the flanks of nude mice (Nu/Nu; Taconic) in a final volume of 100 μL. Following 10-14 days post implantation, mice were randomized into statistically identical cohorts and treated with 100 mg/kg/day of metronidazole (suspension in 0.5% methylcellulose) or with vehicle alone by oral gavage daily for approximately 3 weeks.
(§2) Nu/nu mice were raised in the specific-pathogen-free (SPF) conditions with autoclaved food and water. For both patient and HT-29 cell derived xenografts, tumor size was measured by caliper every Monday, Wednesday and Friday each week. Tumor volume was calculated using the formula: Volume=0.5×L×W^2 and growth rate was measured by calculating the percentage increase in volume. Tumor measurements were carried out in a blinded approach. Mouse body weight was recorded every 3 to 7 days. Mice were euthanized when the tumor diameter reached 2 cm or following the 3 weeks of drug treatment. Tissues were cryopreserved in Bambanker cell freezing media (Wako Chemicals USA) or snap frozen in liquid nitrogen and stored at −80° C. PDX experiments were performed with 22 (untreated group) and 24 (treated group) mice at timepoint zero, over three independent trials. […]

[12] = test system: Fusobacterium-positive PDX tumors (COCA36); assay: In vivo metronidazole trial, tumor volume of Fusobacterium-positive PDX; design: species or system nude mice (Nu/Nu); conditions: 100 mg/kg/day oral gavage, approximately 3 weeks, vs vehicle; p=0.0005
Method: Animals bearing tumors (with volumes <250 mm^3) were randomized into statistically identical cohorts and treated with 100 mg/kg/day of metronidazole (Sigma Aldrich, USA), (suspension in 0.5% methylcellulose) or with the vehicle alone (0.5% methylcellulose) by oral gavage, daily, for approximately 3 weeks.
as §2, with “trials. HT-29 derived xenograft experiments were performed with 20 (untreated group) and 19 (treated group) mice at timepoint zero, over two independent trials.” for “trials.”

[13] = E-test on FAA agar, triplicate, test range 0.016 to 256 ug/ml, no bacterial growth at 0.016 ug/ml, read-out: MIC

Question: For `O=c1[nH]cc(F)c(=O)[nH]1` [5-FU, 5-fluorouracil], which “recurrence/metastasis of Fusobacterium-positive colorectal tumors” value [1] is on record?
Answer: less likely to develop recurrence/metastasis

Question: What about the cardiotoxicity [2] of the same molecule?
Answer: associated with cardiotoxicity

Question: And the “inhibition of Fusobacterium growth, patient CRC isolates” value [3]?
Answer: inhibits Fusobacterium growth at levels comparable to achievable doses in plasma of treated patients; also recorded: potent inhibitors of Fusobacterium growth; also recorded: within a range comparable to patient plasma levels when receiving 5-fluorouracil infusion

Question: And the “inhibition of Fusobacterium growth, patient CRC isolates” value ([3]; listed as 5-Fluorouracil)?
Answer: inhibits Fusobacterium growth at levels comparable to achievable doses in plasma of treated patients

Question: And the “inhibition of F. nucleatum growth in pilot screen” value [4]?
Answer: significantly inhibit F. nucleatum growth; also recorded: potent inhibitor of Fusobacterium growth

Question: Which “inhibition of Fusobacterium growth, dose response validation” value [5] does the source give for `CCCCCCNC(=O)n1cc(F)c(=O)[nH]c1=O` [carmofur] here?
Answer: even more potent in killing Fusobacterium than the active drug 5-FU

Question: And the “inhibition of Fusobacterium growth, dose response validation” value ([5]; listed as Carmofur)?
Answer: potent inhibitor of Fusobacterium growth

Question: With `CO[C@@]1(NC(=O)Cc2cccs2)C(=O)N2C(C(=O)O)=C(COC(N)=O)CS[C@@H]21` [cefoxitin] as the molecule, how does the “tumorigenesis in ETBF induced murine colonic tumors” value [6] read?
Answer: reduction in tumorigenesis

Question: What about the “in vitro antibiotic sensitivity (sensitive / resistant)” value ([7]; E-test on FAA agar, triplicate) of the same molecule?
Answer: sensitive

Question: And the MIC [7, 13]?
Answer: < 0.016 µg/mL

Question: With `O=C(N[C@H](CO)[C@H](O)c1ccc([N+](=O)[O-])cc1)C(Cl)Cl` [chloramphenicol] as the molecule, how does the “general susceptibility of the species” value [8] read?
Answer: susceptible

Question: With `CC[C@H]1OC(=O)[C@H](C)[C@@H](O[C@H]2C[C@@](C)(OC)[C@@H](O)[C@H](C)O2)[C@H](C)[C@@H](O[C@@H]2O[C@H](C)C[C@H](N(C)C)[C@H]2O)[C@](C)(O)C[C@@H](C)C(=O)[C@H](C)[C@@H](O)[C@]1(C)O` [erythromycin] as the molecule, how does the “general susceptibility of the species” value [8] read?
Answer: resistant

Question: With `Cc1ncc([N+](=O)[O-])n1CCO` [metronidazole] as the molecule, how does the “tumor cell proliferation (BrdU incorporation)” value [9] read?
Answer: reduces tumor growth rate and cancer cell proliferation; also recorded: significant reduction in tumor cell proliferation; also recorded: decreased cancer cell proliferation

Question: What about the “Fusobacterium load in the tumor tissue” value [10] of the same molecule?
Answer: significant decrease in Fusobacterium load; also recorded: decreases Fusobacterium load

Question: What about the “inhibition of F. nucleatum growth in pilot screen” value [4] of the same molecule?
Answer: significantly inhibit F. nucleatum growth

Question: And the “tumor growth (percentage tumor volume increase), Fusobacterium-free HT-29 xenograft” value [11]?
Answer: no significant decrease in tumor growth; also recorded: not statistically significant

Question: What about the “reported sensitivity of Fusobacteria” value ([8]; Lofmark et al. 2010) of the same molecule?
Answer: highly sensitive

Question: What about the “tumor growth (percentage tumor volume increase), Fusobacterium-positive PDX” value [12] of the same molecule?
Answer: reduces tumor growth rate; also recorded: statistically significant decrease in tumor growth

Question: And the “in vitro antibiotic sensitivity (sensitive / resistant)” value ([7]; E-test on FAA agar, triplicate)?
Answer: sensitive

Question: What about the MIC [7, 13] of the same molecule?
Answer: < 0.016 µg/mL

Question: What about the MIC ([7]; F. nucleatum isolates from the PDX, read-out: minimum inhibitory concentration) of the same molecule?
Answer: < 0.016 µg/mL

Question: For penicillin, which “general susceptibility of the species” value [8] is on record?
Answer: susceptible
